Converted amounts (≈) assume the structure as drawn.
Key:
Aspergillus flavus = test: Minimal inhibitory concentration (MIC) against A. flavus; format: cell-based; conditions: 24 h at 25° C. in ½ PDB, minimal concentration that inhibits growth
Protocol: (§1) To determine the MIC and MFC of a compound against Aspergillus flavus, Fusarium oxysporum or F. culmorum, a 2-fold dilution series of the compounds of the invention was incubated with the corresponding spore suspension in ½ PDB (potato dextrose broth, Difco) (2×10^4 spores/ml). […] MFC was determined as the minimal concentration of a compound resulting in less than 1% survival of the fungal culture relative to the DMSO control.

HepG2 cells = test: Cellular cytostatic and/or cytotoxic effect on HepG2 cells; format: cell-based
Protocol: Evaluation of the cytostatic and/or cytotoxic effect of compounds on certain specific eukaryotic cells is a standard procedure and well known to the person skilled in the art. The effect of a selection of compounds of the invention on the proliferation of HepG2 cells was measured.

Fusarium oxysporum = test: Minimal inhibitory concentration (MIC) against F. oxysporum; format: cell-based; conditions: 24 h at 25° C. in ½ PDB, minimal concentration that inhibits growth
Protocol: as §1

C. glabrata = test: Minimal fungicidal concentration (MFC) against C. glabrata; format: cell-based, Candida glabrata; conditions: Nakaseomyces glabratus; 24 h at 37° C. in PBS; less than 1% survival relative to DMSO control
Protocol: (§2) Two-fold dilution series of the compounds were prepared in 50% DMSO. 5 μl of these series were added to 95 μl PBS buffer inoculated with 1/500 cells of an overnight culture of either C. albicans, C. glabrata or C. krusei (final DMSO conc 2%). 2% DMSO served as negative control. After 24 h incubation at 37° C. of these cultures with the antifungal compounds in PBS, the cell cultures were plated on YPD agar and colony forming units (CFUs) were determined after incubation of the plates for 2 days. MFC was determined as the minimal concentration of a compound resulting in less than 1% survival of the yeast culture relative to the DMSO control.

A. fumigatus = test: Minimal inhibitory concentration (MIC) against A. fumigatus; format: cell-based; conditions: Aspergillus fumigatus; minimal concentration that inhibits growth
C. albicans SC5314 [1] = test: Minimal fungicidal concentration (MFC) against C. albicans; format: cell-based; conditions: Candida albicans, 24 h at 37° C. in PBS, less than 1% survival relative to DMSO control
Protocol: as §2

C. albicans SC5314 [2] = test: Mouse model for Candidiasis, fungal burden in the kidney; format: in vivo, BALB/c mice; conditions: 10 mg/kg intraperitonealy, once or twice a day; kidneys 5 days after infection; FIG. 2
Source text: An assay for in vivo efficacy measurement using mouse model for Candidiasis Fungal burden in the kidney of infected mice was used to evaluate the (prophylactic and/or therapeutic) activity of the compounds of the invention in murine models of infection by C. albicans, as described in the prior art (Tavares P M et al. Antimicrob Agents Chemother. 2008 December; 52(12):4522-5; Clemons K V, D A Stevens, J Antimicrob. Chemother. 2001; 47:183-186; Okawa Yet al., Biol Pharm Bull 2007, 30:1870-1873). In general, mice can be inoculated intravenously via lateral tail vein with 2×10^5 to […] C. albicans yeast cells suspended in saline. The compounds can be administered (for example intravenously or intraperitonealy or orally) before (for example 1 hour before) or after (for example 16 hours after) the challenge with C. albicans. After this first injection, four similar subsequent injections can be made with 24 h or other intervals. […] 100 μl-samples can be plated onto solid brain heart infusion (BHI) plates and C. albicans CFU (colony forming units) are counted after 2 days.
More specifically, the in vivo experiment was performed as following (in accordance with Tavares P M et al. Antimicrob Agents Chemother. 2008 December; 52(12):4522-5). […] 100 μl-samples were plated onto solid brain heart infusion (BHI) plates and C. albicans CFU (colony forming units) were counted after 2 days. […]

C. albicans SC5314 [3] = test: C. elegans model for C. albicans infection; format: in vivo; conditions: different concentrations; FIG. 1
Protocol: The in vivo efficacy of the compounds was assessed in a C. elegans model for Candida infection as described by Breger et al., 2007 (Breger, J., et al. 2007. PLoS Pathog. 3:[…]). To this end, L4 larvae of a double mutant (glp-[…]) of C. elegans were used and fed for 4 h on C. albicans SC5314 agar plates (YPD agar plates on the surface inoculated with 100 μl of an overnight culture in YPD and incubated for 16 h at 37° C.). Worms were collected and washed with M9 buffer containing 3 g/L KH2PO4, 6 g/L Na2HPO4, 5 g/L NaCl, 1 mM MgSO4, 10 μg/mL cholesterol and 100 μg/mL Kanamycin. Forty-to-fifty worms were suspended in 1 mL in each well of 24-well microtiterplates, in the presence or absence (DMSO control) of the compounds of the invention (at different concentrations). Survival of the worms was monitored daily. The percentage survival of the worms in the presence or absence of antifungal compounds was calculated each day relative to the survival at day 0. Data are means of duplicate measurements and experiments were performed at least twice. As positive controls for efficacy testing, amphotericin B (10 μg/ml) and miconazole (10 μg/ml) in DMSO can be used.

SMILES | MIC (Aspergillus flavus) | LD30 48 h (lethal dose for 30% of the cells in culture) (HepG2 cells) | MIC (Fusarium oxysporum) | MFC (C. glabrata) | MIC (A. fumigatus) | MFC (C. albicans SC5314 [1]) | activity against Candida albicans infection (CFU from kidneys) (C. albicans SC5314 [2]) | % survival of C. albicans infected C. elegans (C. albicans SC5314 [3])
CCN1CC(C)(C)OC(=O)C1CC(=O)NCc1cccc(Cl)c1 (stereo not drawn) [CPD-49, N-(3-chlorobenzyl)-2-(4-ethyl-6,6-dimethyl-2-oxomorpholin-3-yl)acetamide] | 50 mg/L (≈ 148 µM) | >25 µM | 50 mg/L (≈ 148 µM) | 6.25 mg/L (≈ 18.4 µM) | 3.12 mg/L (≈ 9.22 µM) | 6.25 mg/L (≈ 18.4 µM) |  | 
CCN1CC(C)(C)OC(=O)C1CC(=O)NCc1cccs1 (stereo not drawn) [CPD-22, 2-(4-ethyl-6,6-dimethyl-2-oxomorpholin-3-yl)-N-(thiophen-2-ylmethyl)acetamide] | 50 mg/L (≈ 161 µM) | >25 µM | 50 mg/L (≈ 161 µM) | 50 mg/L (≈ 161 µM) | 25 mg/L (≈ 80.5 µM) | 25 mg/L (≈ 80.5 µM) |  | 
CCN1CC(C)(C)OC(=O)C1CC(=O)NCc1ccc(Cl)c(Cl)c1 (stereo not drawn) [CPD-50, N-(3,4-dichlorobenzyl)-2-(4-ethyl-6,6-dimethyl-2-oxomorpholin-3-yl)acetamide] | 6.25 mg/L (≈ 16.7 µM) |  | 25 mg/L (≈ 67 µM) | 3.12 mg/L (≈ 8.36 µM) | 1.6 mg/L (≈ 4.29 µM) | 12.5 mg/L (≈ 33.5 µM) |  | 
CCN1CC(C)(C)OC(=O)C1CC(=O)NCc1c(Cl)cccc1Cl (stereo not drawn) [CPD-51, N-(2,6-dichlorobenzyl)-2-(4-ethyl-6,6-dimethyl-2-oxomorpholin-3-yl)acetamide] | 50 mg/L (≈ 134 µM) | >25 µM | 50 mg/L (≈ 134 µM) | 25 mg/L (≈ 67 µM) | 12.5 mg/L (≈ 33.5 µM) | 12.5 mg/L (≈ 33.5 µM) |  | 
CCN1CC(C)(C)OC(=O)C1CC(=O)Nc1ccc(C(C)C)cc1 (stereo not drawn) [CPD-06, 2-(4-ethyl-6,6-dimethyl-2-oxomorpholin-3-yl)-N-(4-isopropylphenyl)acetamide] | 12.5 mg/L (≈ 37.6 µM) | >25 µM | 50 mg/L (≈ 150 µM) | 25 mg/L (≈ 75.2 µM) | 1.6 mg/L (≈ 4.81 µM) | 12.5 mg/L (≈ 37.6 µM) | strong activity | increase in survival
CCN1CC(C)(C)OC(=O)C1CC(=O)NC1CCN(Cc2ccccc2)CC1 (stereo not drawn) [CPD-14, N-(1-benzylpiperidin-4-yl)-2-(4-ethyl-6,6-dimethyl-2-oxomorpholin-3-yl)acetamide] | > 50 mg/L |  | > 50 mg/L | > 50 mg/L | > 50 mg/L | 25 mg/L (≈ 64.5 µM) |  | 
CCCNC(=O)CC1C(=O)OC(C)(C)CN1CC (stereo not drawn) [CPD-36, 2-(4-ethyl-6,6-dimethyl-2-oxomorpholin-3-yl)-N-propylacetamide] | > 50 mg/L |  | > 50 mg/L | > 50 mg/L | 50 mg/L (≈ 195 µM) | 25 mg/L (≈ 97.5 µM) |  | 
CCN1CC(C)(C)OC(=O)C1CC(=O)NCc1ccc(Cl)cc1 (stereo not drawn) [CPD-08, N-(4-chlorobenzyl)-2-(4-ethyl-6,6-dimethyl-2-oxomorpholin-3-yl)acetamide] | 25 mg/L (≈ 73.8 µM) | >25 µM | 50 mg/L (≈ 148 µM) | 12.5 mg/L (≈ 36.9 µM) | 6.25 mg/L (≈ 18.4 µM) | 12.5 mg/L (≈ 36.9 µM) |  | 
CCN1CC(C)(C)OC(=O)C1CC(=O)Nc1ccc2c(ccn2C)c1 (stereo not drawn) [CPD-07, 2-(4-ethyl-6,6-dimethyl-2-oxomorpholin-3-yl)-N-(1-methyl-1H-indol-5-yl)acetamide] | 25 mg/L (≈ 72.8 µM) | >25 µM | 50 mg/L (≈ 146 µM) | 50 mg/L (≈ 146 µM) | 3.12 mg/L (≈ 9.1 µM) | 12.5 mg/L (≈ 36.4 µM) |  | 
CCN1CC(C)(C)OC(=O)C1CC(=O)NC1CCc2ccccc21 (stereo not drawn) [CPD-09, N-(2,3-dihydro-1H-inden-1-yl)-2-(4-ethyl-6,6-dimethyl-2-oxomorpholin-3-yl)acetamide] | > 50 mg/L |  | > 50 mg/L | 50 mg/L (≈ 151 µM) | 50 mg/L (≈ 151 µM) | 25 mg/L (≈ 75.7 µM) |  | 
CCN1CC(C)(C)OC(=O)C1CC(=O)NCc1cccc(-c2ccccc2)c1 (stereo not drawn) [CPD-82, N-(biphenyl-3-ylmethyl)-2-(4-ethyl-6,6-dimethyl-2-oxomorpholin-3-yl)acetamide] | 25 mg/L (≈ 65.7 µM) |  | 25 mg/L (≈ 65.7 µM) | 12.5 mg/L (≈ 32.9 µM) | 3.12 mg/L (≈ 8.21 µM) | 12.5 mg/L (≈ 32.9 µM) |  | 

From patent US20120252801A1, “ANTIFUNGAL COMPOUNDS” (Katholieke Universiteit Leuven, K.U.Leuven R&D, priority 2009, published 2012)
